Source: PubChem BioAssay (NCI)
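The compound was tested at five concentrations on cells cultured in 96-well plates, with a 48-hour exposure period. Definition used: TGI = concentration required for complete inhibition of growth.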

Assays:
Assay in all cases: NCI tumour cell line growth inhibition, 48 h
CCRF-CEM leukemia = test system: CCRF-CEM leukemia
COLO 205 colon = test system: COLO 205 colon
DLD-1 colon = test system: DLD-1 colon
DMS 114 small cell lung = test system: DMS 114 small cell lung
DMS 273 small cell lung = test system: DMS 273 small cell lung
HCC-2998 colon = test system: HCC-2998 colon
HL-60(TB) leukemia = test system: HL-60(TB) leukemia
M19-MEL melanoma = test system: M19-MEL melanoma
SW-620 colon = test system: SW-620 colon
SNB-78 CNS = test system: SNB-78 CNS
MDA-MB-231 breast = test system: MDA-MB-231 breast
MDA-MB-435 = test system: MDA-MB-435
SR leukemia = test system: SR leukemia

Compound	TGI (CCRF-CEM leukemia) [µM]	TGI (COLO 205 colon) [µM]	TGI (DLD-1 colon) [µM]	TGI (DMS 114 small cell lung) [µM]	TGI (DMS 273 small cell lung) [µM]	TGI (HCC-2998 colon) [µM]	TGI (HL-60(TB) leukemia) [µM]	TGI (M19-MEL melanoma) [µM]	TGI (SW-620 colon) [µM]	TGI (SNB-78 CNS) [µM]	TGI (MDA-MB-231 breast) [µM]	TGI (MDA-MB-435) [µM]	TGI (SR leukemia) [µM]
C=C1C(=O)O[C@@H]2[C@H](O)[C@@H](C)[C@@H]3C=CC(=O)[C@@]3(C)[C@H](OC(=O)C=C(C)C)[C@H]12	0.461	1.67	0.878	6.57	3.24	3.23	0.412	2.7	1.18				
O=c1c2ccccc2[nH]c2cc(O)cc(O)c12	> 100				> 100	> 100	> 100	> 100		> 100			
CCCCCCC(C)OC(=O)/C=C(\CC(=O)OC(C)CCCCCC)C(=O)OC(C)CCCCCC (centres undefined)		> 100	> 100	> 100	> 100	> 100	> 100	> 100	> 100	> 100			
N=c1c2c(=S)n(-c3ccccc3)c(=S)n(-c3ccccc3)c2nc(SCCN2CCOCC2)n1-c1ccccc1	3.19	3.66				3.24	3.31		3.96		4.73	3.4	2.79
CSc1nc2c(=O)n(-c3ccccc3)c(=S)n(-c3ccccc3)c2s1	> 100	> 100				> 100	> 100		> 100		> 100	> 100	> 100
C[C@]1(O)O[C@@H]2OCC[C@@H]2C2=C1C(=O)c1ccccc1C2=O	51.2	53.9				40.6	33.2		39.8		49.3	19.5	45.5
COc1cc(C2c3cc4c(cc3[C@@H](Nc3cccc([N+](=O)[O-])c3)C3COC(=O)[C@H]23)OCO4)cc(OC)c1O (some centres undefined)		18.1	17.1	9.18	6.11	6.41	4.3	> 100	> 65.4	53.9			
NC(=O)CC(N=C1C(=O)OC(C(O)CO)C1=NC(CC(N)=O)C(=O)O)C(=O)O (centres undefined)	> 100	> 100				> 100	> 100		> 100		> 100	> 100	> 100
CC(NC(=O)C(N)CC(=O)O)NC(=O)N(C)C(C)(C)C (centres undefined)	> 100	> 100				> 100	> 100		> 100		> 100	> 100	> 100
Clc1ncc(Cl)c(Cl)n1	> 100	3.3				15.1	2.36		2.94		7.82	7.52	5.62
C=CCCCCCCCCCOC1C=CC(OC(C)=O)C(COC(C)=O)O1 (centres undefined)	> 100	> 100				> 100	> 100		> 100		> 100	> 100	> 100
CC(=O)OCC1OC(O/C=C(\CN=[N+]=[N-])C(C)=O)C(OC(C)=O)C(OC(C)=O)C1OC(C)=O (centres undefined)	3.59	3.9				35	5.27		16.9		27.7	26.7	7.69
CC(=O)NC(Cc1ccc(OP(=O)(OCc2ccc([N+](=O)[O-])o2)N(C)CCCCCl)cc1)C(=O)NC(C)c1ccc(OCC2CCCCC2)c(C(N)=O)c1 (centres undefined)	10.1	3.68				3.42	6.83		14.2		4.79	4.81	6.42
CCN(CC)CCCC(C)NC(=O)c1ccc2c(c1)C(=O)c1ccccc1C2=O (centres undefined)	61.2	23.3	45.4	20	46.2	33.5	34.2	32	43.1	47.4			78.1
Clc1nc(Cl)c(CBr)c(Cl)n1	3.41	20.9				30.8	> 100		3.99		4.04	17	> 100
